Results published in patent publication US12037411B2, “Antibodies, and bispecific antigen-binding molecules that bind HER2 and/or APLP2, conjugates, and uses thereof” (Regeneron Pharmaceuticals, Inc., priority 2018, dated 2024).

Columns and labels:
APLP2 in T47D cells = experiment: APLP2 turnover after cycloheximide treatment (western blot); format: cell-based, human; conditions: for Normalized APLP2 expression: 50 ug/ml
Description: (§1) Additionally, the degradation rates of APLP2 and HER2 was tested on T47D cells. For the assay, T47D cells were plate at 10^6 cells/well in 6 well plates (Corning #3516). The cells were allowed to grow overnight at 37° C. in 5% CO2 in media consisting of RPMI 1640+10% FBS+1 mM sodium pyruvate+10 mM HEPES+10 ug/mL Insulin+5 mL Penicillin/Streptomycin/Glutamine. The following day, cells were treated with 50 ug/ml cycloheximide (Sigma #C4859-1ML) for 0, 0.5, 1.5, 2.5, 3.5, 4.5 and 5.5 hours. After the incubation, cells were washed once with 1 ml of DPBS/CM, and subsequently placed on ice and then the DPBS/CM was replaced with 800 uL of lysis buffer [1×RIPA (Boston Bioproducts, Cat #BP-116)+Protease inhibitor (Thermo Fisher, 1861280), cells were scraped and lysates were transferred to 1.5 ml Eppendorf tubes. Afterwards, the samples were sonicated with 25 pulses, 1 sec each at 50% power. Afterwards, the samples were frozen at −20° C. The samples were later thawed and 52 ul of each sample was mixed with 20 ul 4× Laemmli (Invitrogen, NP0007)+8 uL 10× Reducing agent (Invitrogen, Cat #NP0009)]. Samples were boiled at 95° C. for 10 minutes, centrifuged at 14000 RPM for 10 minutes at room temperature. 40 uL of each sample was loaded into three Wedged 4-20% TRIS-Glycine gels (Invitrogen, XPO4125BOX) and ran at 150V. The gels were then transferred into two PVDF membranes (ThermoFisher, IB24001) with iBlot2 dry blotting system (ThermoFisher, 1321001). The membranes were then blocked with 5% milk (BioRad, Cat #170-6404) in TBS for 3 hours at room temperature. Primary antibodies, rabbit-anti-HER2 antibody (Dako, Cat #A048529) or rabbit-anti-APLP2 antibody (abcam, Cat #ab140624) in 2.5% Milk+0.1% Tween (Sigma, Cat #P8074) in TRIS buffered saline (TBS; ThermoFisher, Cat #28376), were then added to the membranes and incubated at 4° C. overnight. The membranes were then washed 3 times with TBS for 5 minutes at room temperature. After, anti-rabbit-HRP antibodies (Promega, #W4011) and anti-actin-HRP antibody (Santa Cruz, Cat #sc-47779) in 2.5% Milk+0.1% Tween in TBS were added to the membranes and incubated at room temperature for 1 hour. The membranes were then washed 2 times with TBS+0.1% Tween at room temperature for 5 minutes, and then washed 2 more times with TBS room temperature for 5 minutes. The blot was then developed with ECL Detection Reagent (GE healthcare, Cat #RPN2106) and imaged with Azure C300 imager. Band quantification (mean fluorescence intensity minus background) was performed using ImageJ. Table 11 summarizes HER2, APLP, or T47D cells after cycloheximide (CHX) treatment normalized to cells having no CHX contact.

HER2 in T47D cells = experiment: HER2 turnover after cycloheximide treatment (western blot); format: cell-based, human; conditions: for Normalized HER2 expression: 50 ug/ml
Description: as §1

C[C@@H]1C[C@@H]([C@H](O)CC2CC(=O)NC(=O)C2)C(=O)[C@@H](C)C1 [CHX, cycloheximide]
Normalized APLP2 expression (APLP2 in T47D cells; CHX treatment 0.5 hours): 41%
Normalized APLP2 expression (APLP2 in T47D cells; CHX treatment 1.5 hours): 22%
Normalized APLP2 expression (APLP2 in T47D cells; CHX treatment 2.5 hours): 9%
Normalized APLP2 expression (APLP2 in T47D cells; CHX treatment 3.5 hours): 7%
Normalized APLP2 expression (APLP2 in T47D cells; CHX treatment 4.5 hours): 8%
Normalized APLP2 expression (APLP2 in T47D cells; CHX treatment 5.5 hours): 6%
APLP2 degradation (APLP2 in T47D cells; after 5.5 hours): 94%
APLP2 degraded (APLP2 in T47D cells; in 1.5 hours): Eighty-eight
Normalized HER2 expression (HER2 in T47D cells; CHX treatment 0.5 hours): 57%
Normalized HER2 expression (HER2 in T47D cells; CHX treatment 1.5 hours): 78%
Normalized HER2 expression (HER2 in T47D cells; CHX treatment 2.5 hours): 68%
Normalized HER2 expression (HER2 in T47D cells; CHX treatment 3.5 hours): 64%
Normalized HER2 expression (HER2 in T47D cells; CHX treatment 4.5 hours): 88%
Normalized HER2 expression (HER2 in T47D cells; CHX treatment 5.5 hours): 78%
HER2 degradation (HER2 in T47D cells; after 5.5 hours): 22%
